ChEMBL document CHEMBL1151337, “New tertiary alkaloids of Strychnos decussata” (J Nat Prod, 1980)

What was measured:
[1] = system: Mus musculus; test: Toxicity in ip dosed NMRI mouse assessed as clonic and tonic convulsions assessed as cunvulsive dose; type: organism-based; conditions: in vivo
[2] = Toxicity in ip dosed NMRI mouse assessed as clonic and tonic convulsions; type: organism-based; conditions: in vivo

Compound | Activity [1] | LD50 [2]
C/C=C1\[C@@H]2C[C@H]3c4c(c5cc(O)ccc5n4[C@@H](C2)O[C@H]1OC)CCN3C | 84 mg/kg | 84 mg/kg
C/C=C(/C=O)[C@@H]1C[C@H]2c3c(c4ccccc4n3[C@@H](O)C1)CCN2C [AKAGERINE] | 50 mg/kg | –
C/C=C(/C=O)[C@H]1C[C@H](OC)n2c3c(c4ccccc42)CCN(C)[C@H]3C1 | 45.3 mg/kg | –
C/C=C(/C=O)[C@H]1C[C@H](OC)n2c3c(c4cc(O)ccc42)CCN(C)[C@H]3C1 | 75 mg/kg | 75 mg/kg
C/C=C1\[C@@H]2C[C@H]3c4c(c5cc(O)ccc5n4[C@@H](C2)O[C@@H]1OC)CCN3C | 80 mg/kg | 90 mg/kg
